Test results published in patent US8815305B2, “Composition containing a plant extract and process for producing same” (BASF Beauty Care Solutions France S.A.S., priority 2003, dated 2014).

Key:
[1] = Toxicity tests and growth tests on human fibroblasts (cellular proteins, Bradford); assay type: cell-based; settings: human
[2] = test system: human fibroblasts; assay: as above; assay type: cell-based
[3] = target: elastase from pancreas (Sus scrofa, UniProt P00772); assay: Elastase inhibition, Elastin-Congo red as substrate; assay type: biochemical
elastase from pancreas, sequence (P00772 27-266): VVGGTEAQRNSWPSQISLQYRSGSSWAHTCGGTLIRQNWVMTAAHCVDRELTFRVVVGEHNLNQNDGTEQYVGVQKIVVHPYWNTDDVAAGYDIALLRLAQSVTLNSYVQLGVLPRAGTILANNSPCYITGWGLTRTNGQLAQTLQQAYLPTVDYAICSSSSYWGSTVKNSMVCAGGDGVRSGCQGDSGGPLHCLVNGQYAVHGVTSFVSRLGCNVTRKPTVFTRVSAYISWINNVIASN
Description: This test was carried out with an elastase from pancreas on Elastin labelled with Congo red. The time of incubation was 30 minutes at room temperature and the optical density of released Congo red was recorded after centrifugation at a wavelength of 520 nm. al-antitrypsine was used as positive reference.
The following table summarizes the results expressed as EC 50 in % w/v. (EC 50 in % w/v is the concentration in % w/v which reduces the enzymatic activity by 50%.)

[4] = target: T1, human leucocyte elastase (HLE) (Homo sapiens, UniProt P08246); settings: cited from earlier work
T1 sequence (P08246 30-267): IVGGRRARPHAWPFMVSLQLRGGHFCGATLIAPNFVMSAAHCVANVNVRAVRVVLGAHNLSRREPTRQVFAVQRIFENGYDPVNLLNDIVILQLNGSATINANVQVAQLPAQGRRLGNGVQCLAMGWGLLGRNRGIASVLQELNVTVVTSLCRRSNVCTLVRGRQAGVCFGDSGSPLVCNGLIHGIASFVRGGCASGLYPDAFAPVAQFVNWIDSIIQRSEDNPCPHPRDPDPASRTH

[5] = test system: human keratinocytes; assay: Cytophotoprotection of human keratinocytes against UV-B radiation; assay type: cell-based; settings: for Cell number, % against control / Released LDH, % against control / Released PGE2, % against control: UVB
Description: UV-B irradiation (from 280 to 320 nm) of the human skin induces a cutaneous inflammation mainly by activation of an enzyme (phospholipase A2 or PLA2), which releases arachidonic acid from the cell membranes of the cells of the skin (V. A. De Leo, D. Hanson, I. B. Weinstein and L. C. Harber—Ultraviolet radiation stimulates the release of arachidonic acid from mammalian cells in culture—Photochemistry and Photobiology (1985) volume 41N°1 pages 51-56). Then other specific enzymes (so called cyclo-oxygenases) transform arachidonic acid in active components called prostaglandines (or PG) which are secreted out of the cells. The fixation of certain prostaglandins (PGE2) on specific skin receptors is followed by redness and swelling as after a sunburn. On cultured human cells, these UV-B effects on cell membranes are associated with a release in the supernatant medium of a cytoplasmic enzyme, the Lactate Dehydrogenase or LDH (B. Bonnekoh, B. Farkas, J. Geisel and G. Mahrle—Lactate dehydrogenase release as an indicator of dithranol-induced membrane injury in cultured human keratinocytes. Dermatological research (1990) volume 282, pages 325-331).
Expressed in keywords, the experiments were carried out as follows: • Inoculation of human keratinocytes within growth medium (standard medium with fetal calf serum (FCS) • Incubation 3 days at 37° C., CO2=5% • Exchange of growth medium with balanced salt solution containing ingredient to be tested • Irradiation of keratinocytes by UV-B: 50 mJ/cm^2 (DUKE GL40E lamp) (A DUKE GL40E lamp is a certain type of marketed sunlamp well known to the skilled artisan) • Incubation 1 day at 37° C., CO2=5% • Numeration of adherent cells after trypsination (trypsination is a process based on the use of the enzyme trypsine which is a protease allowing the retrieval of cell from the support in order to seed the cells into a bigger flask and therefore to expand the cell culture) • Recovery of supernatant medium for spectrophotometric determination of the activity of LDH, and PGE2 by ELISA method

[6] = test system: human fibroblasts; assay: Cytophotoprotection of human fibroblasts against UV-A radiation; assay type: cell-based
Description: The cytoprotection against UV-A radiation was evaluated by a test on human fibroblasts because UV-A radiation penetrates through the epidermis until the derma where it induces oxidative stress (DALLE CARBONARE M, PATHAK M A; Skin photosensitising agents and the role of reactive oxygen species in photoaging; JOURNAL OF PHOTOCHEMISTRY & PHOTOBIOLOGY, 1992, 14, 1-2, pages 105-124. This oxidative stress was evaluated in vitro by measuring of the level of released MDA (malonaldehyde) and of intracellular GSH (reduced glutathione) (Morliere P., Moisan A., Santus R., Huppe G., Mazière J. C., Dubertret L.: UV-A induced lipid peroxydation in cultured human fibroblasts. Biochim. Biophys. Acta, 1084, 3, pages 261-269 (1991)).
Expressed in keywords, the experiments were carried out as follows: • Inoculation of human fibroblasts within a growth medium (standard medium with foetal calf serum (FCS) • Incubation 3 days at 37° C., CO2=5% • Exchange of growth medium with balanced salt solution • Irradiation of fibroblasts by UV-A: 20 J/cm^2 (black light TFWN lamp) (A TFWN lamp is a certain type of marketed sunlamp well known to the skilled artisan) • Exchange of growth medium with standard medium without FCS but containing ingredient to be tested • Incubation 3 days at 37° C., CO2=5% • Recovery of supernatant medium for spectrophotometric determination of the malonaldialdehde (or MDA) rate • Cells number determined by evaluation of the levels of cellular proteins (Bradford's method) and the rate of cellular GSH was evaluated according to the method of Hissin

[7] = test system: human fibroblasts; assay: Survival efficacy test on human fibroblasts (DNA, ATP, proteins, GSH); assay type: cell-based; settings: for ATP / DNA / GSH/proteins / Proteins: quiescent fibroblasts, 3 days
Description: Human fibroblasts were inoculated in a standard medium of a cell culture with foetal calf serum (FCS). After an incubation of 3 days the cells became quiescent, then the growth medium was exchanged for a standard medium with a range of concentrations for each ingredient to be tested. After an incubation of 3 days, the number of viable cells was determined by evaluation of the levels of and the rates of cellular DNA (fluorescent probe), ATP (enzymatic method), proteins (Bradford's method) and GSH which is evaluated according to the method of Hissin (Hissin P. J., Hilf R. A, fluorometric method for determination of oxidised and reduced Glutathione in tissues. Analytical Biochemistry (1977) volume 74, pages 214-226).

[8] = test system: skin chronic inflammation; settings: in vivo; cited from earlier work

Structure (SMILES): CC1(C)CC[C@]2(CO)CC[C@]3(C)C(=CC[C@@H]4[C@@]5(C)CC[C@H](O)C(C)(C)[C@@H]5CC[C@]43C)[C@@H]2C1 [erythrodiol]
- viability at 3 days, 0.0001 % [1]: 104%
- viability at 3 days, 0.0003 % [1]: 105%
- viability at 3 days, 0.001 % [1]: 43%
- viability at 3 days, 0.003 % [1]: 34%
- LD50 (% w/v) ([2]; human fibroblasts, 3 days incubation): 0.0009% w/v
- safe at concentrations up to ([2]; human, 3 days): up to 0.0003%
- inhibition of proteases such as elastase [3]: good potential to inhibit
- IC50 ([3]; 30 minutes at room temperature, Elastin-Congo red, read-out: Elastase EC 50 (concentration which reduces the enzymatic activity by 50%) (converted)): 1810 µM
- interaction with the ursolic acid binding site of HLE [4]: can also interact with this binding site
- UV toxic effects on the number of viable cells (cell number and released LDH) [5]: not modified
- Cell number, % against control ([5]; dose 0.00001%): 21%
- Released LDH, % against control ([5]; dose 0.00001%): 135%
- Released PGE2, % against control ([5]; dose 0.00001%): 135%
- Cell number, % against control ([5]; dose 0.00003%): 23%
- Released LDH, % against control ([5]; dose 0.00003%): 118%
- Released PGE2, % against control ([5]; dose 0.00003%): 164%
- protection of human fibroblasts from toxic UVA effects [6]: moderately protected
- GSH/protein, % against control ([6]; UV-A 20 J/cm^2, dose 0.0001%): 94%
- Released MDA, % against control ([6]; UV-A 20 J/cm^2, dose 0.0001%): 81%
- cell's protein, % against control ([6]; UV-A 20 J/cm^2, dose 0.0001%): 139%
- GSH/protein, % against control ([6]; UV-A 20 J/cm^2, dose 0.0003%): 22%
- Released MDA, % against control ([6]; UV-A 20 J/cm^2, dose 0.0003%): 70%
- cell's protein, % against control ([6]; UV-A 20 J/cm^2, dose 0.0003%): 42%
- ATP ([7]; 0.00001% w/v): 107%
- DNA ([7]; 0.00001% w/v): 96%
- GSH/proteins ([7]; 0.00001% w/v): 120%
- Proteins ([7]; 0.00001% w/v): 100%
- ATP ([7]; 0.00003% w/v): 99%
- DNA ([7]; 0.00003% w/v): 108%
- GSH/proteins ([7]; 0.00003% w/v): 141%
- Proteins ([7]; 0.00003% w/v): 97%
- ATP ([7]; 0.0001% w/v): 66%
- DNA ([7]; 0.0001% w/v): 78%
- GSH/proteins ([7]; 0.0001% w/v): 101%
- Proteins ([7]; 0.0001% w/v): 91%
- ATP ([7]; 0.0003% w/v): 73%
- DNA ([7]; 0.0003% w/v): 59%
- GSH/proteins ([7]; 0.0003% w/v): 88%
- Proteins ([7]; 0.0003% w/v): 83%
- amount of GSH synthesized by human fibroblasts ([7]; only at a concentration of 0.00003%): modified
- activity on chronic dermal inflammation [8]: significantly effective
